Measured values: US10953027B2, “Active agents and methods of their use for the treatment of metabolic disorders and nonalcoholic fatty liver disease” (Flagship Pioneering Innovations V, Inc., priority 2018, dated 2021)

Experiments:
naïve CD4+ T cells = experiment: Human regulatory T cell differentiation assay; assay type: cell-based; conditions: 6 days
Procedure: Peripheral blood mononuclear cells (PBMCs) from whole blood donated by health volunteers were separated by Ficoll-Paque gradient centrifugation and naïve CD4^+ T cells were subsequently isolated using magnet beads (EasySep™ Human Naïve CD4^+ T Cell Isolation Kit, Cambridge, Mass.). For regulatory T cell (Treg) differentiation assay, naïve CD4^+ T cells were cultured (1-10×10^4 cells) in CTS OpTmizer medium for 6 days and stimulated with 5 ng/ml TGF-β, 100 U/ml IL-2, and ImmunoCult™ Human […] T Cell Activator; Stemcell #10990) with/without our Compounds. Cell viability was determined using a viability dye (eBioscience Fixable Viability Dye eFluor 780: ThermoFisher 65-0865-14) at 1:500 dilution. The cells were gated for Treg, defined as Live, CD11c^−, CD14^−, CD19^−, CD8^−, CD4^+, CD3^+, CD25^+, FOXP3^+. Percent (%) Tregs were calculated as percentage of CD4^+, CD25^+, FOXP3^+ cells over total CD4^+ T cells. Statistical analysis was performed with GraphPad Prism Software Using One-Way ANOVA.

Mouse 3T3-L1 cells = experiment: Mouse adipocyte lipolysis assay; assay type: cell-based; conditions: for activity at 3000 µM: 3 mM
Procedure: Once the cells became confluent, they were seeded into a tissue culture treated 96 well plate. […] After 14 days of differentiation, cells were treated with compounds of interest. After 24 hours post-treatment, the cell viability was assessed using CellTiter-Glo Luminescent Cell Viability Assay from Promega, and lipolysis was determined using Lipolysis Assay Kit from ZenBio.

Mouse myocyte = Mouse myocyte lipolysis assay; assay type: cell-based; conditions: for activity at 3000 µM: 3 mM
Procedure: Cells were obtained from ATCC and cultured in Dulbecco's Modified Eagle's medium (DMEM) containing 20% fetal bovine serum and 1% penicillin/streptomycin at 37° C. in an incubator with 5% CO2. Once the cells became confluent, they were seeded into a tissue culture treated 96 well plate. The next day, the medium containing DMEM with 2% equine serum was used to start differentiation. Once cells were fully differentiated, they were treated with indicated compounds.

[1] = Assay 1. Stability in Simulated Gastric Fluid (SGF); assay type: in vitro ADME; conditions: 1 μM, 37° C., SGF pH 1.6 with pepsin
In short: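 Simulated gastric fluid, prepared fresh as NaCl buffer at pH 1.6 with 0.1 mg/mL pepsin and FaSSIF powder, received test compound to 1 μM final and was held at 37 °C. LC/MS of acetonitrile-quenched samples, taken immediately and then periodically, gave degradation rates.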

[2] = Assay 2. Stability in Simulated Intestinal Fluid (SIF); assay type: in vitro ADME; conditions: 1 μM, 37° C., SIF pH 6.7 with pancreatin
In short: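 Degradation rate measured by LC/MS after acetonitrile quench of timed aliquots, starting at T0. Test compound 1 μM in simulated intestinal fluid (pH 6.7 phosphate buffer, FaSSIF powder, pancreatin), shaken at 37 °C.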

C57BL/6 DIO mice = experiment: DIO animal model of NAFLD/NASH in young mice (Example 16); assay type: in vivo; parameters: OGTT: unit not given beside the values; conditions: for % Weight change: 12 weeks; for OGTT: Day 82, 2 g/kg glucose PO; for % Difference compared to ctrl: weight change vs HFD ctrl
Text: Species (number, sex, age/weight): C57BL/6 DIO mice (120+10 spares, male, ˜18 weeks of age) from Jackson Laboratories, Stock #380050. Note: 18 week old DIO mice sent sent with a minimum body weight of 39 grams. Spare animals may be used to replace study animals, as required, euthanized after completion of dose administration or transferred to Testing Facility Docket 07-12.
Cage Side Observations (Animal Health Checks): Cage side animal's health checks will be performed at least once daily to check for general health, mortality and moribundity. Clinical Observations: Clinical observations will be performed per exception. Body Weights: Body weights for all animals will be recorded prior to Day 1 and at least twice weekly thereafter, including prior to necropsy ([…]).
Dose Administration: Dosing for Groups 3-8 will be provided ad libitum in the diet. Dosing for Groups 9 (Saline) and 10 (Semaglutide at 123.4 μg/kg) in a 5 mL/kg volume, will begin on Day 1, and be performed 3 times weekly for 12 weeks by SC administration. Residual Test Article: All residual high fat diets will be frozen at nominally −20° C., and at the end of the study, several pellets of the diets for groups 2-9 (in 50-ml conical tubes) will be shipped to Sponsor, and the rest will be discarded. Residual control diets (group 1) will be stored ambient, and at the end of the study, several pellets in a 50 mL conical tube will be shipped to Sponsor and the rest is discarded. Residual test material for Group 10 will be stored at nominally −70° C., and at the end of the study, an aliquot of test material will be shipped to Sponsor, and the rest will be discarded.
(§1) Oral Glucose Tolerance Test (oGTT) On Day 82 (+/−2 days) an oGTT will be performed. Following an approximate 4 hour fast, 2 g/kg glucose (50% Dextrose diluted in sterile water for injection to a concentration of 0.4 g/mL) will be administered at 5 mL/kg via oral gavage (PO). Blood will be collected pre-glucose challenge (t=0) and at t=15, 30, 60, 90, and 120 minutes following the glucose challenge. Whole blood glucose levels will be evaluated at all time points using a handheld glucometer and will be reported in the Data Submission. This will be scheduled on a Tuesday or Thursday to avoid Group 9/10 dosing days.
as §1, with “Submission.” for “Submission. This will be scheduled on a Tuesday or Thursday to avoid Group 9/10 dosing days.”

[3] = Mus musculus, 3T3-L1, 24 hours, read-out: Lipolysis Free Fatty Acids % DMSO
[4] = Mus musculus, read-out: Free glycerol % DMSO

## CCCC(=O)O [Butyric Acid]
naïve CD4+ T cells; 3 mM
  Cell viability % DMSO: − (<90%: −)
naïve CD4+ T cells; Homo sapiens, CD4+ T, 144 h, 3 mM, read-out: Treg induction % DMSO
  activity at 3000 µM: < 90%

## CCCC(=O)O [Butyric acid]
Mouse 3T3-L1 cells; [3]
  activity at 3000 µM: 50 to 70%
Mouse myocyte; [4]
  activity at 3000 µM: < 50%

## CCCC(=O)Oc1cc(OC(=O)CCC)c2c(=O)c(OC(=O)CCC)c(-c3ccc(OC(=O)CCC)c(OC(=O)CCC)c3)oc2c1 [Compound 15, [2-butanoyloxy-4-[3,5,7-tri(butanoyloxy)-4-oxo-chromen-2-yl]phenyl] butanoate]
[1]
  Assay 1 (SGF) (% Remaining @ 1 hours): C (C: >75% of the tested compound remaining)
[2]
  Assay 2 (SIF) (% @ Remaining 4 hours): B (B: 25-75% of the tested compound remaining)
C57BL/6 DIO mice; ad libitum in HFD
  % Weight change: 23%
  % Difference compared to ctrl: 0%
C57BL/6 DIO mice; ad libitum in HFD, ctrl HFD
  OGTT: 32722
  % HbA1c: 6.50%

## CCCC(=O)OCC[C@@H](C)OC(=O)Oc1ccc(/C=C/c2cc(OC(=O)O[C@H](C)CCOC(=O)CCC)cc(OC(=O)O[C@H](C)CCOC(=O)CCC)c2)cc1 [Compound 78, (3R,3′R)-((((5-((E)-4-(((((R)-4-(butyryloxy)butan-2-yl)oxy)carbonyl)oxy)styryl)-1,3-phenylene)bis(oxy))bis(carbonyl))bis(oxy))bis(butane-3,1-diyl) dibutyrate]
[1]
  Assay 1 (SGF) (% Remaining @ 1 hours): C (C: >75% of the tested compound remaining)
[2]
  Assay 2 (SIF) (% @ Remaining 4 hours): A (A: <25% of the tested compound remaining)
C57BL/6 DIO mice; ad libitum in HFD
  % Weight change: 21%
  % Difference compared to ctrl: −2%
C57BL/6 DIO mice; ad libitum in HFD, ctrl HFD
  OGTT: 29944
  % HbA1c: 6.14%

## CCCC(=O)O[C@H]1OC[C@H](OC(=O)CCC)[C@H](OC(=O)CCC)[C@H]1OC(=O)CCC [Compound 184, (2R,3R,4S,5S)-3,4,5-tris(butanoyloxy)oxan-2-yl Butanoate]
C57BL/6 DIO mice; ad libitum in HFD
  % Weight change: 11%
  % Difference compared to ctrl: −12%
C57BL/6 DIO mice; ad libitum in HFD, ctrl HFD
  OGTT: 27257
  % HbA1c: 5.96%

## O=C[C@H](O)[C@@H](O)[C@@H](O)CO [L-arabinose]
Mouse 3T3-L1 cells; Mus musculus, 3T3-L1, 0.5 mM, 24 hours, read-out: Lipolysis Free Fatty Acids % DMSO
  activity at 500 µM: 50 to 70%
Mouse 3T3-L1 cells; Mus musculus, 3T3-L1, 1 mM, 24 hours, read-out: Lipolysis Free Fatty Acids % DMSO
  activity at 1000 µM: 50 to 70%
Mouse myocyte; Mus musculus, 0.5 mM, read-out: Free glycerol % DMSO
  activity at 500 µM: 70 to 90%
Mouse myocyte; Mus musculus, 1 mM, read-out: Free glycerol % DMSO
  activity at 1000 µM: 70 to 90%
naïve CD4+ T cells; 0.5 mM
  Cell viability % DMSO: = (90%≥ ≤110%: =)
naïve CD4+ T cells; 1 mM
  Cell viability % DMSO: = (90%≥ ≤110%: =)
naïve CD4+ T cells; Homo sapiens, CD4+ T, 144 h, 0.5 mM, read-out: Treg induction % DMSO
  activity at 500 µM: 90 to 110%
naïve CD4+ T cells; Homo sapiens, CD4+ T, 144 h, 1 mM, read-out: Treg induction % DMSO
  activity at 1000 µM: 90 to 110%

## CC[C@H]1[C@@H](O)[C@@H]2[C@H](CC[C@]3(C)[C@@H]([C@H](C)CCC(=O)O)CC[C@@H]23)[C@@]2(C)CC[C@@H](O)C[C@@H]12 [Obeticholic acid, obeticholic acid]
Mouse 3T3-L1 cells; Mus musculus, 3T3-L1, 100 μM, 24 hours, read-out: Lipolysis Free Fatty Acids % DMSO
  activity at 100 µM: 90 to 100%
Mouse myocyte; Mus musculus, 100 μM, read-out: Free glycerol % DMSO
  activity at 100 µM: 90 to 100%
naïve CD4+ T cells; 100 uM
  Cell viability % DMSO: = (90%≥ ≤110%: =)
naïve CD4+ T cells; Homo sapiens, CD4+ T, 144 h, 100 uM, read-out: Treg induction % DMSO
  activity at 100 µM: 110 to 130%

## CCC(=O)O [Propionic acid]
Mouse 3T3-L1 cells; [3]
  activity at 3000 µM: ≤ 50%
Mouse myocyte; [4]
  activity at 3000 µM: 50 to 70%
naïve CD4+ T cells; 3 mM
  Cell viability % DMSO: = (90%≥ ≤110%: =)

## CC(O)CC(=O)[O-].[Na+] (centres unmarked) [Sodium BHB]
Mouse 3T3-L1 cells; 0.2 mM, 24 hours
  Lipolysis Free Fatty Acids % DMSO: ++ (50> ≤70%: ++)
  Lipolysis Glycerol % change: + (70%> ≤90%: +)
Mouse 3T3-L1 cells; 0.2 mM, 24 hours post-treatment
  cell viability (CellTiter-Glo): 86 % of DMSO control
Mouse 3T3-L1 cells; 2 mM, 24 hours
  Lipolysis Free Fatty Acids % DMSO: ++ (50> ≤70%: ++)
  Lipolysis Glycerol % change: ++ (50> ≤70%: ++)
Mouse 3T3-L1 cells; 20 mM, 24 hours
  Lipolysis Free Fatty Acids % DMSO: + (70%> ≤90%: +)
  Lipolysis Glycerol % change: ++ (50> ≤70%: ++)
Mouse myocyte; 0.2 mM
  Free glycerol % DMSO: ++ (50> <70%: ++)
Mouse myocyte; 2 mM
  Free glycerol % DMSO: ++ (50> <70%: ++)
naïve CD4+ T cells; 2 mM
  Cell viability % DMSO: = (90%≥ ≤110%: =)
  Treg induction % DMSO: + (110%> ≤130%: +)
naïve CD4+ T cells; 20 mM
  Cell viability % DMSO: − (<90%: −)
  Treg induction % DMSO: = (90%≥ ≤110%: =)

## Semaglutide [reference compound]
C57BL/6 DIO mice; 123.4 μg/kg SC 3 times weekly for 12 weeks, ctrl Saline
  % HbA1c: 7.90%
C57BL/6 DIO mice; 123.4 μg/kg SC 3 times weekly, ctrl Saline
  OGTT: 18214
